The target in experiment [1] is T1, MEK2 (Homo sapiens, UniProt P36507).
T1 construct: purchased Eurofins DiscoverX (KINOMEscan; SAFETYscan E/IC50 ELECT)
Description: KINOMEscan scanEDGE. Format: binding. The conditions noted are these: 20 uM.

Experiment [2] has as its target T2, AChE (Homo sapiens, UniProt P22303).
T2 construct: purchased Eurofins DiscoverX (KINOMEscan; SAFETYscan E/IC50 ELECT)
Description: SAFETYscan Enzymatic. Type of experiment: biochemical. More on the design: dose or concentration left out as unconfirmed. The conditions noted are these: read-out: Max Response (%) (Antagonist). The method, then: (§1) The specificity of EDG-5506 for fast skeletal myosin over other, unrelated proteins was confirmed using two off-target binding and activity screens. […] A second off-target panel (SAFETYscan E/IC50 ELECT, Eurofins DiscoverX) tested in vitro enzyme activity against 78 proteins, including GPCR, ion channel, kinases, nuclear hormone receptors, and transporters. In all assays, the IC50 of EDG-5506 was more than 10 μM (Supplemental Data File 1).

Experiment [3] addresses T3, PDE4D2 (Homo sapiens, UniProt Q08499).
T3 construct: purchased Eurofins DiscoverX (KINOMEscan; SAFETYscan E/IC50 ELECT)
Description: SAFETYscan Enzymatic. Type of experiment: biochemical. More on the design: dose or concentration left out as unconfirmed. The conditions noted are these: read-out: Max Response (%) (Antagonist). The method, then: as §1

For experiment [4], the target named is T4, COX2 (Homo sapiens, UniProt P35354).
T4 construct: purchased Eurofins DiscoverX (KINOMEscan; SAFETYscan E/IC50 ELECT)
T4 sequence (P35354 18-604): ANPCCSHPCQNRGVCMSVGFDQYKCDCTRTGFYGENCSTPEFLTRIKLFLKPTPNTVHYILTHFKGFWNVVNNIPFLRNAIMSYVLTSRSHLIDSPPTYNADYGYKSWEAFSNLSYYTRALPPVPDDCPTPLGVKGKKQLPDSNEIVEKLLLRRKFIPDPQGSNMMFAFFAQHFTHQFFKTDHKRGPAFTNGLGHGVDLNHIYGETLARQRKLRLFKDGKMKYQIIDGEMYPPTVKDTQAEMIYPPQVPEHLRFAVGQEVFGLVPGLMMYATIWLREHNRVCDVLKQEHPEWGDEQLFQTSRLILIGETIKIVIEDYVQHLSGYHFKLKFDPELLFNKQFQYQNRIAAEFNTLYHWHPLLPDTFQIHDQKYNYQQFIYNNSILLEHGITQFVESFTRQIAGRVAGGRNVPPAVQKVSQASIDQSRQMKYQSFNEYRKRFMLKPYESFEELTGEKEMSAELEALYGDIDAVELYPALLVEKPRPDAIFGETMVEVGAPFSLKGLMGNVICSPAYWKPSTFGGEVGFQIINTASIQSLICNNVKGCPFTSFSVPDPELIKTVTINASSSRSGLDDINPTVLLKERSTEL
Description: SAFETYscan Enzymatic. More on the design: dose or concentration left out as unconfirmed. The note with it: read-out: Max Response (%) (Antagonist). Format: biochemical. The method, then: as §1

For experiment [5], the target named is T5, COX1 (Homo sapiens, UniProt P23219).
T5 construct: purchased Eurofins DiscoverX (KINOMEscan; SAFETYscan E/IC50 ELECT)
T5 sequence (P23219 24-599): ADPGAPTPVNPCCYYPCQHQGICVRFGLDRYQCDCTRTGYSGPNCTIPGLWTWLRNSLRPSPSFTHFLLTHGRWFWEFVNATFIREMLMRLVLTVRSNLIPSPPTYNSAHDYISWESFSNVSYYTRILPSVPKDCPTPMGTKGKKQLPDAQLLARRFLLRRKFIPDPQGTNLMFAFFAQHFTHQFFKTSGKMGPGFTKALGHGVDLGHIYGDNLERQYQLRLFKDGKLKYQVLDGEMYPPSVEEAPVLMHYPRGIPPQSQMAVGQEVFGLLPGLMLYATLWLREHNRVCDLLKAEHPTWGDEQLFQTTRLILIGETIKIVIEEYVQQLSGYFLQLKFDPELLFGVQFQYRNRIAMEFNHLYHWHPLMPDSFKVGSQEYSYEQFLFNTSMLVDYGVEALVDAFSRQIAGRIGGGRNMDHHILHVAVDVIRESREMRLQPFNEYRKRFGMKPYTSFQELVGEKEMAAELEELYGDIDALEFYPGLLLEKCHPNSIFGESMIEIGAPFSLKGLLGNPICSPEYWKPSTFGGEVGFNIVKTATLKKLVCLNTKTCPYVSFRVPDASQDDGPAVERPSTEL
Description: SAFETYscan Enzymatic. Type of experiment: biochemical. On the set-up: dose or concentration left out as unconfirmed. The note with it: read-out: Max Response (%) (Antagonist). The method, then: as §1

Experiment [6] has as its target T6, PDE3A (Homo sapiens, UniProt Q14432).
T6 construct: purchased Eurofins DiscoverX (KINOMEscan; SAFETYscan E/IC50 ELECT)
Description: SAFETYscan Enzymatic. The note with it: read-out: Max Response (%) (Antagonist). More on the design: dose or concentration left out as unconfirmed. Format: biochemical. The method, then: as §1

Experiment [7] concerns Human Bicep myofibrils. Description: Myofibril ATPase, human bicep. Type of experiment: biochemical. The method, then:
Myofibrils were prepared from various animals and tissues: rabbit psoas muscle and porcine cardiac muscle were purchased from Pel-Freez Biologicals. Human bicep and soleus muscle were purchased from BioIVT, and neonatal rat muscle was obtained in house. All myofibrils were prepared using published methods ([21]).
A lactate dehydrogenase/pyruvate kinase enzyme-coupled system ([62]) was used to monitor ATP hydrolysis rates in various muscle preparations. Rabbit psoas myofibrils were used for high-throughput screening at pCa 6.25 at 0.25 mg/mL. A multidrop cassette (Thermo Fisher Scientific) dispensed 10 μL of the coupled enzyme system, calcium, and myofibrils to 10 μL ATP, NADH and PEP to initiate the reaction prior to reading on a plate reader (Envision, Perkin Elmer) for 10 minutes per plate at room temperature. Hits were reconfirmed, and secondary assays were used to evaluate selectivity, including bovine cardiac myofibrils (pCa 5.86) and enzyme coupled hits with a hexokinase screen (Sigma-Aldrich).

The structures appear in SMILES notation.

T3 sequence (Q08499 303-809 limits assumed): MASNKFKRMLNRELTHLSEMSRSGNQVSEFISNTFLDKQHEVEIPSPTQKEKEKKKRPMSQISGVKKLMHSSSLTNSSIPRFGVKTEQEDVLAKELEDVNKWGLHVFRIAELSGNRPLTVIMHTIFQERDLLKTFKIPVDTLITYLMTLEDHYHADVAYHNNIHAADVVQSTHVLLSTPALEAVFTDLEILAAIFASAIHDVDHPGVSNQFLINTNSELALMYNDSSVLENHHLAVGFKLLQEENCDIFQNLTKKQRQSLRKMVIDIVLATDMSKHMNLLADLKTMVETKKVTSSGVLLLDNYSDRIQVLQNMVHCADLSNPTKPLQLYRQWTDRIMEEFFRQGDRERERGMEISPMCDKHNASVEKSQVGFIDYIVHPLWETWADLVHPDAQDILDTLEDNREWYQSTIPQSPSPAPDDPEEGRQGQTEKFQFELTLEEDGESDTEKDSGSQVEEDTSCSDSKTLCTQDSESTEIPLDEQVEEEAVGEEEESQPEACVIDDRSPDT
T2 sequence (P22303 32-614): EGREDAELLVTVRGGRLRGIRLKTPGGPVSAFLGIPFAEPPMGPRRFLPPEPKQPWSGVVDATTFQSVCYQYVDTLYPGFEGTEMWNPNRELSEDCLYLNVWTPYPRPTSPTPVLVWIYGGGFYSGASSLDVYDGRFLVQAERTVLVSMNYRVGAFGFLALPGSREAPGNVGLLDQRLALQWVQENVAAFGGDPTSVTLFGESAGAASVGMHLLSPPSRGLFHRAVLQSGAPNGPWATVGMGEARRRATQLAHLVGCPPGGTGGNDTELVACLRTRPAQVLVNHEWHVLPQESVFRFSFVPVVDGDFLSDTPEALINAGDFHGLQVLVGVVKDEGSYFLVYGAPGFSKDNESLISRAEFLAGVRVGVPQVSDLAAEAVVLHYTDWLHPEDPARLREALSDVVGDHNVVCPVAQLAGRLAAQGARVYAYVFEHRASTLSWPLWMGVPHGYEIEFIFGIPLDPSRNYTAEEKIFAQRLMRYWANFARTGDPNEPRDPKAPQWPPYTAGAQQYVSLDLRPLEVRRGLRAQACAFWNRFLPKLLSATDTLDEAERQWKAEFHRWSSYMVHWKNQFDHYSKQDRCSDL
T6 sequence (Q14432 whole entry): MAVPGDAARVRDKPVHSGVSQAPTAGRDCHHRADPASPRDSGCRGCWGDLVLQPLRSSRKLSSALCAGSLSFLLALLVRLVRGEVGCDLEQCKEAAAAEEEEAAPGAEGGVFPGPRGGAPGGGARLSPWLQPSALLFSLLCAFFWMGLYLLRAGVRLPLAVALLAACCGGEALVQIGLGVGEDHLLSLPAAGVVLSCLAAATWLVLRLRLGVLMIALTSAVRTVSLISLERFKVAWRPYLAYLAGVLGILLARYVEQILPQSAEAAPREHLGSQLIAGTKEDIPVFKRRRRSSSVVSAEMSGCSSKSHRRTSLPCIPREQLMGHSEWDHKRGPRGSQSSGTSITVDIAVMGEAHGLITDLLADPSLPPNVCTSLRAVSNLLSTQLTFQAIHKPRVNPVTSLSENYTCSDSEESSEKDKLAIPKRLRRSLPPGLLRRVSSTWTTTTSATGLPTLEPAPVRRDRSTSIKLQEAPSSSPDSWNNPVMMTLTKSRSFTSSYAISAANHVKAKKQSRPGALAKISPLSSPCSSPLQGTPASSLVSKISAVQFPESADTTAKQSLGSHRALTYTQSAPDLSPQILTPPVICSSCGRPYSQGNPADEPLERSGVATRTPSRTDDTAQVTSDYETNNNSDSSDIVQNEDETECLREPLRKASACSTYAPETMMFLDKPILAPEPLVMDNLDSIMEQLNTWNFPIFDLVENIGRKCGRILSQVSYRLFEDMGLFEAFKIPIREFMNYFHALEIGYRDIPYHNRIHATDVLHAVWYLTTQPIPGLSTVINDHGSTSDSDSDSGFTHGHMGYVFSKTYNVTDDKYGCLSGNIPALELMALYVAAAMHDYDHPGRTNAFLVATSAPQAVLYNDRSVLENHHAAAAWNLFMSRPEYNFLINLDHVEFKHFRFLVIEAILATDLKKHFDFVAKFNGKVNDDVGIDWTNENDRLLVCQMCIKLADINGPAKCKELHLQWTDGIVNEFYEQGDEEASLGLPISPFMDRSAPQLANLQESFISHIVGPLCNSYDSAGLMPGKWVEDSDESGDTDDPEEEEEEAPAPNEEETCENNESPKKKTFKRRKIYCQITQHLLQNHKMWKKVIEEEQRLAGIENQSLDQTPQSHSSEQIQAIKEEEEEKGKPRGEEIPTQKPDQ
T1 sequence (P36507 whole entry): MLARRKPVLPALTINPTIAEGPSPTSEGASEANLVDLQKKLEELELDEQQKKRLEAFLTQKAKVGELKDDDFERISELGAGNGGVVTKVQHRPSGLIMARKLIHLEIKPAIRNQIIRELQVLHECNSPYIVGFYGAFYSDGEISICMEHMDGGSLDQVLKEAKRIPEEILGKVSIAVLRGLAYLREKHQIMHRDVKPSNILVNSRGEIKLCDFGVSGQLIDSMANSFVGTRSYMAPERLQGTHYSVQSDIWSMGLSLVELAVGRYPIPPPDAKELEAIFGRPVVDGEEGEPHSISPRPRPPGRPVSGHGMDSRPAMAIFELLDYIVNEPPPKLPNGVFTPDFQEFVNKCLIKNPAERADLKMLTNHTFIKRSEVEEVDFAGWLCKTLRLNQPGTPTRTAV

In the case of `O=c1ccc(-c2cnc(OCC(F)(F)F)nc2)nn1Cc1cncc(F)c1` [EDG-5506], the “binding, % of control” value in experiment [1] is listed as 72 % of control. Further, the Emax was found to be 16.4% in experiment [2]; 7.16% in experiment [3]; 3.26% in experiment [4]; 4.78% in experiment [5]; 0.91% in experiment [6]. The “Maximum Inhibition (%)” value in experiment [7] (human bicep myofibrils) amounted to 89%. For the same compound, the concentration for half-maximal inhibition (IC50) in experiment [7] (human bicep, 50% Type I, 50% IIa, IIx) is 1200 nM.

The IC50 is the midpoint of a concentration-inhibition curve.

The record behind these values is publication PMC10178848, “Modulating fast skeletal muscle contraction protects skeletal muscle in animal models of Duchenne muscular dystrophy” (The Journal of Clinical Investigation, 2023).
